# Entries after “also recorded” stand apart in the source; their conditions may differ. Structures can show the parent of a compound that is named as a salt.
# Assays:
# [1] = test system: LNCaP cells; experiment: Androgen-dependent proliferation of LNCaP cells (BrdU incorporation); assay type: cell-based, human; conditions: R1881 0.1 nM, 4 days; 185-9-2 5 μg/ml, bicalutamide 10 μM
# Description: The prostate gland is an androgen-dependent organ where androgens are the predominant mitogenic stimulus (Isaacs J T, Scott W W, Coffey D S., Prog Clin Biol Res. 1979; 33:133-44). This dependency on androgens provides the underlying rationale for treating prostate cancer with chemical or surgical castration. […] BrdU incorporation was measured 4 days later to indicate changes in proliferation in response to androgen (FIG. 12). […] Cancer Inst. Monogr. 49, 17-21).
# [2] = target: T1, AR (Homo sapiens, UniProt P10275, T878A); experiment: AR protein in harvested LNCaP xenografts (IHC, western blot); assay type: in vivo, mice; design: LNCaP human prostate cancer cells express endogenous androgen receptor (AR); from tissue; host or cells: LNCaP xenografts harvested from castrated NOD-SCID mice; conditions: I.V. or I.T delivery
# T1 sequence (P10275 1-920 T878A): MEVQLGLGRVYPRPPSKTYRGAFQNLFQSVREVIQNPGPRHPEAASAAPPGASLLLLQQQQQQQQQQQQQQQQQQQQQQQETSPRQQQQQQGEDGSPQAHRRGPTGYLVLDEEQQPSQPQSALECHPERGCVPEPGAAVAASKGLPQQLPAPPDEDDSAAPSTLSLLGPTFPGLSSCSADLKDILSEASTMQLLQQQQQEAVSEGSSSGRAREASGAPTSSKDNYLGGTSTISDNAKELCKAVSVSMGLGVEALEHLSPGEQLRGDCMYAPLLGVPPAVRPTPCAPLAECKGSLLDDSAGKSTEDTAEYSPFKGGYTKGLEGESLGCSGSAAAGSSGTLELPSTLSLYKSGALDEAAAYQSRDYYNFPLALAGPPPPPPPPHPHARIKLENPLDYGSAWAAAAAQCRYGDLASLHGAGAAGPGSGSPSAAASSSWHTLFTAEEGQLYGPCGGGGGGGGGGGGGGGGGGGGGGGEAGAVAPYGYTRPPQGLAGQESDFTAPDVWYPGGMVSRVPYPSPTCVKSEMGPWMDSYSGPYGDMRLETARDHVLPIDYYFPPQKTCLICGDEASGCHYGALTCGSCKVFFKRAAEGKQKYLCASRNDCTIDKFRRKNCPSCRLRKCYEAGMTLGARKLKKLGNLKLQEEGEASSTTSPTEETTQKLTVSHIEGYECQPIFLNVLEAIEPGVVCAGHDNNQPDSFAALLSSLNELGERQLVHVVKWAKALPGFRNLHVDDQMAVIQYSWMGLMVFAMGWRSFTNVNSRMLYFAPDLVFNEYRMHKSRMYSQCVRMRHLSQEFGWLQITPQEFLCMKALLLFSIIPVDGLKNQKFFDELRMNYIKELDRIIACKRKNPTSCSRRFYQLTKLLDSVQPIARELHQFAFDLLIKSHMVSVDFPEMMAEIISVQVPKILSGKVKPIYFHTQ
# Description: Levels of cytokeratin 18 were measured as an indication of amount of epithelial cells in the xenograft samples.
# [3] = target: T1, AR; experiment: Western blot of AR protein in LNCaP whole cell lysates; assay type: cell-based; design: LNCaP cells express endogenous AR and secrete prostate-specific antigen (PSA); endogenous in cells; host or cells: LNCaP
# [4] = test system: PC3 cells; experiment: Proliferation of PC3 cells (BrdU incorporation); assay type: cell-based, human; conditions: 185-9-2 5 μg/ml, 3 days
# Text: LNCaP cells were employed initially for all experiments because they are well-differentiated human prostate cancer cells in which ligand-independent activation of the AR by FSK has been characterized (Nazareth et al 1996 J. Biol. Chem. 271, 19900-19907; and Sadar 1999 J. Biol. Chem. 274, 7777-7783). LNCaP cells express endogenous AR and secrete prostate-specific antigen (PSA) (Horoszewicz et al 1983 Cancer Res. 43, 1809-1818). LNCaP cells can be grown either as monolayers in cell culture or as tumors in the well-characterized xenograft model that progresses to androgen independence in castrated hosts (Sato et al 1996 J. Steroid Biochem. Mol. Biol. 58, 139-146; Gleave et al 1991 Cancer Res. 51, 3753-3761; Sato et al 1997 Cancer Res. 57, 1584-1589; and Sadar et al 2002 Mol. Cancer. Ther. 1(8), 629-637). […] Small molecules that specifically target the AR-NTD should have no effect on PC3 cells. […] Reporter specificity may be determined using several alternative reporter gene constructs. […]
# The prostate gland is an androgen-dependent organ where androgens are the predominant mitogenic stimulus (Isaacs J T, Scott W W, Coffey D S., Prog Clin Biol Res. 1979; 33:133-44). […] BrdU incorporation was measured 4 days later to indicate changes in proliferation in response to androgen (FIG. 12). […]
# [5] = test system: LNCaP xenografts; experiment: LNCaP subcutaneous xenografts in castrated mice; assay type: in vivo, NOD-SCID male mice
# Description: Six to eight-week old male athymic SCID mice were inoculated subcutaneously in the flank region via a 27-gauge needle with a 150 μl suspension of LNCaP or PC3 human prostate cancer cells (1×10^6 cells). The inoculations took place while the animal was under isofluorane anaesthesia. The tumor take rate is approximately 75%. Mice bearing tumors of 100 mm^3 were randomly assigned to treatment groups. Castration was performed as described below. Tumor volume (formula: L×W×H×0.5236) was measured in mice bearing LNCaP subcutaneous tumors that became palpable or visible and at least 40 mm^3. The animals were monitored daily and tumors were measured every 5 days.
smiles,measurement,setting,value
"CC(C)(c1ccc(OCC(O)CO)cc1)c1ccc(OCC(O)CCl)cc1 (centres unmarked) [185-9-2, BADGE.HCL.H2O]",androgen-dependent proliferation of LNCaP cells (BrdU incorporation),[1],blocked androgen-dependent proliferation; also recorded: as effective as bicalutamide
same,levels of AR protein in xenografts,[2],does not reduce levels of AR protein; also recorded: did not decrease levels of AR protein
same,levels of AR protein in whole cell extracts,[3]; LNCaP cells treated 3 or 16 hours,does NOT decrease levels of AR protein; also recorded: not decreased
same,"levels of AR protein, long term incubation","[3]; LNCaP cells, 48 hrs, presence or absence of DHT",did not reduce levels of AR protein
same,proliferation of PC3 cells (BrdU incorporation),[4],does NOT block proliferation; also recorded: not to block proliferation
same,"size of LNCaP xenograft tumors, intratumoral injection","[5]; castrated mice, I.T. every 5 days, 20 mg/kg body weight, 20 mg/kg",reduced the size of the tumors; also recorded: significantly reduce the tumors
same,"size of LNCaP xenograft tumors, intravenous injection","[5]; castrated mice, I.V. 50 mg/kg body weight every other day",reduced the size of the tumors
same,"LNCaP tumor volume at the duration (end) of the experiment, intratumoral","[5]; castrated mice, i.t. every 5 days, five doses",35.4±15.7 mm^3
same,LNCaP tumor volume within 2 weeks of i.v. injection,"[5]; castrated mice, i.v. 50 mg/kg every other day",64.3±29.6 mm^3
same,apoptosis in xenografts (TUNEL),"[5]; intravenous delivery, IHC",increased apoptosis
same,proliferation in xenografts (Ki67),"[5]; intravenous delivery, IHC",reduced proliferation
